The text below walks through data of patent US5519025A, “4-indolylpiperazinyl derivatives” (American Home Products Corporation, priority 1995, dated 1996).

The target of this assay is T1, 5-HT1A serotonin receptors (Rattus norvegicus, UniProt P19327).
T1 construct: rat hippocampal membrane homogenate; from tissue; host or cells: rat hippocampus, membrane homogenate
T1 sequence (P19327 1-422): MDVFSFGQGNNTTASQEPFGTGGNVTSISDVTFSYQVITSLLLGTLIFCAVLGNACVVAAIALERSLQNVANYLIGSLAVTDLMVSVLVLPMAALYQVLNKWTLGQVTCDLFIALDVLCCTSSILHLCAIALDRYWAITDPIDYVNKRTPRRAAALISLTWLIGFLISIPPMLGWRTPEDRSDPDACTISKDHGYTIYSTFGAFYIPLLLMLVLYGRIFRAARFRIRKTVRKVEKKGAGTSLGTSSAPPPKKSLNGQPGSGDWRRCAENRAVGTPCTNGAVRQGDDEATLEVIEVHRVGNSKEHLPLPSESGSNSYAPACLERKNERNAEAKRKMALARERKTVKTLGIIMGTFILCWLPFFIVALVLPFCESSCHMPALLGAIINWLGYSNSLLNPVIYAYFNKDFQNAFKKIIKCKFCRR
The assay can be described thus: displacement of [3H] 8-OHDPAT from 5-HT1A serotonin receptors in rat hippocampal membrane homogenate. The conditions noted are these: [3H] 8-OHDPAT displacement. The format is binding. The text has this:
High affinity for the serotonin 5-HT1A receptor was established by testing the claimed compound's ability to displace [^3 H] 8-OHDPAT (dipropylaminotetralin) from the 5-HT1A serotonin receptors in rat hippocampal membrane homogenate following the procedure of B. S. Alexander and M. D. Wood, J. Pharm. Pharmacol. 1988, 40, 888-891. […] Based upon this receptor binding data, the compounds of this invention are characterized as anxiolytic and/or antidepressant agents useful in the treatment of depression and in alleviating anxiety. As such, the compounds may be administered neat or with a pharmaceutical carrier to a patient in need thereof. The pharmaceutical carrier may be solid or liquid.
A general note: Displacement assays read how much labelled ligand stays bound in the presence of the test substance.

A word on the IC50: it is the concentration needed to halve the response being measured. Higher therefore signals weaker potency in that assay. The compound `CC1(C(=O)N[C@@H](CN2CCN(c3cccc4[nH]ccc34)CC2)c2ccccc2)CCCCC1` [Example 1] came in with a 50% inhibitory concentration (IC50) of 0.00433 µM.
The value for `CC1(C(=O)N[C@H](CN2CCN(c3cccc4[nH]ccc34)CC2)c2ccccc2)CCCCC1` [Example 2] was 0.0355 µM.
